Measurements as given in ChEMBL document CHEMBL5335844, “Design, synthesis and preliminary biological evaluation of rivastigmine-INDY hybrids as multitarget ligands against Alzheimer's disease by targeting butyrylcholinesterase and DYRK1A/CLK1 kinases” (RSC Med Chem, 2024).

tested on: not listed separately; test: Solubility of the compound in PBS at pH 7.4 by HPLC analysis; format: physicochemical; conditions: buffer

Compound	solubility
CCN(C)C(=O)Oc1ccc2c(c1)N(Cc1ccccc1)/C(=C/C(C)=O)S2	Soluble

molecular target: Cholinesterase (Equus caballus, UniProt P81908); test: Inhibition of equine serum BuChE using butyrylthiocholine iodide as substrate preincubated for 5 mins followed by substrate addition and measured every min for 10 mins by Ellman's method; format: cell-free; conditions: not given
Sequence (P81908 whole entry): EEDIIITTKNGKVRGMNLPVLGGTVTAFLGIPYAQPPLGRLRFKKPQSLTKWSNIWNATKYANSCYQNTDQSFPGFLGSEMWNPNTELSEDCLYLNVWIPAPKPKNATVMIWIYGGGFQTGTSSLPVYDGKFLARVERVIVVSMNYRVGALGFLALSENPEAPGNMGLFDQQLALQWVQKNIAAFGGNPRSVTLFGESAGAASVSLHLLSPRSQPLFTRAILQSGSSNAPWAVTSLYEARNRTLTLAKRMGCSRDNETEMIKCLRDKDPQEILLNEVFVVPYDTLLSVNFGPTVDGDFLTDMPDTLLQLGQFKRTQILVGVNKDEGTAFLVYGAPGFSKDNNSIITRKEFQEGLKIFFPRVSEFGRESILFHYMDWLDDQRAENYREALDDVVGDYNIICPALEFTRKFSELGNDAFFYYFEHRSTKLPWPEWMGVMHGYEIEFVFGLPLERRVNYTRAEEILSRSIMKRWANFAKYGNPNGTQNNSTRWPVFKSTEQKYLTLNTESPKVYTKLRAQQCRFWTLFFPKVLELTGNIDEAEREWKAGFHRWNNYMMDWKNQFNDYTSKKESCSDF

Compound	IC50 [µM]
CCCCNC(=O)Oc1ccc2c(c1)N(Cc1ccccc1)/C(=C/C(C)=O)S2	> 10
CCCCCCCNC(=O)Oc1ccc2c(c1)N(Cc1cccc(C)c1)/C(=C/C(C)=O)S2	0.761
CCN1/C(=C/C(C)=O)Sc2ccc(OC(=O)NC3CCCCC3)cc21	13
CCN(C)C(=O)Oc1ccc2c(c1)N(Cc1ccccc1)/C(=C/C(C)=O)S2	0.068
CCCCCCNC(=O)Oc1ccc2c(c1)N(Cc1ccccc1)/C(=C/C(C)=O)S2	0.47
CCCCCCCNC(=O)Oc1ccc2c(c1)N(Cc1ccc3ccccc3c1)/C(=C/C(C)=O)S2	> 10
CCCCCCCNC(=O)Oc1ccc2c(c1)N(CC)/C(=C/C(C)=O)S2	1.64
CCCCCCCNC(=O)Oc1ccc2c(c1)N(Cc1ccc(Cl)cc1)/C(=C/C(C)=O)S2	0.821
CCCCCCCNC(=O)Oc1ccc2c(c1)N(Cc1ccccc1)/C(=C/C(C)=O)S2	0.154
CCCCCCNC(=O)Oc1ccc2c(c1)N(CC)/C(=C/C(C)=O)S2	2
CCN1/C(=C/C(C)=O)Sc2ccc(OC(=O)N(C)C)cc21	> 10
CCN1/C(=C/C(C)=O)Sc2ccc(OC(=O)NCCc3ccccc3)cc21	6
CCN1/C(=C/C(C)=O)Sc2ccc(OC(=O)NCc3cccnc3)cc21	12
CCCCCCCNC(=O)Oc1ccc2c(c1)N(Cc1cccc(Cl)c1)/C(=C/C(C)=O)S2	0.703
CCCCCCCNC(=O)Oc1ccc2c(c1)N(CCc1ccccc1)/C(=C/C(C)=O)S2	0.0267
CCN(C)C(=O)Oc1ccc2c(c1)N(CCc1ccccc1)/C(=C/C(C)=O)S2	0.439
CCCCCCCNC(=O)Oc1ccc2c(c1)N(Cc1cccc(OC)c1)/C(=C/C(C)=O)S2	2.19

molecular target: T1, Dual specificity protein kinase CLK1 (Homo sapiens, UniProt P49759); test: Inhibition of human CLK1 at 10 uM using ERMRPRKRQGSVRRRV as substrate incubated for 40 mins in presence of Mg/[gamma-33P]-ATP by scintillation counting method relative to control; conditions: not given
Target sequence in this assay (P49759 whole entry, looked up): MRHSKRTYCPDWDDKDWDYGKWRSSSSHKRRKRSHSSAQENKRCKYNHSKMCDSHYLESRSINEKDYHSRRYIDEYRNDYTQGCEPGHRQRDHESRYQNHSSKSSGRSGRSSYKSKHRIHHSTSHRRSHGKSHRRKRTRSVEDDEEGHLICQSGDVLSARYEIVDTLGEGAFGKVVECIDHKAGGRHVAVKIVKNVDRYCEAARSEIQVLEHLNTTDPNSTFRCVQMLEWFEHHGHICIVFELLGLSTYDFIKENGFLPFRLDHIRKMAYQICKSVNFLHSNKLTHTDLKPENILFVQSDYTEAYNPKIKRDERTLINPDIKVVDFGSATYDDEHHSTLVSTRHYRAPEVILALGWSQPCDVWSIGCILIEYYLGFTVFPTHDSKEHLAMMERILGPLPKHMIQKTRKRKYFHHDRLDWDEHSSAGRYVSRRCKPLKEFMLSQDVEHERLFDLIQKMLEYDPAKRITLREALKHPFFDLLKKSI

Compound	inhibition [%]
CC(=O)/C=C1\Sc2ccc(O)cc2N1Cc1ccc2ccccc2c1	72

molecular target: T2, Acetylcholinesterase (Homo sapiens, UniProt P22303); test: Inhibition of human erythrocyte AChE at 10 uM using acetylthiocholine iodide as substrate preincubated for 5 mins followed by substrate addition and measured every min for 10 mins by Ellman's method relative to control; conditions: time 15.0 min
T2 sequence (P22303 whole entry): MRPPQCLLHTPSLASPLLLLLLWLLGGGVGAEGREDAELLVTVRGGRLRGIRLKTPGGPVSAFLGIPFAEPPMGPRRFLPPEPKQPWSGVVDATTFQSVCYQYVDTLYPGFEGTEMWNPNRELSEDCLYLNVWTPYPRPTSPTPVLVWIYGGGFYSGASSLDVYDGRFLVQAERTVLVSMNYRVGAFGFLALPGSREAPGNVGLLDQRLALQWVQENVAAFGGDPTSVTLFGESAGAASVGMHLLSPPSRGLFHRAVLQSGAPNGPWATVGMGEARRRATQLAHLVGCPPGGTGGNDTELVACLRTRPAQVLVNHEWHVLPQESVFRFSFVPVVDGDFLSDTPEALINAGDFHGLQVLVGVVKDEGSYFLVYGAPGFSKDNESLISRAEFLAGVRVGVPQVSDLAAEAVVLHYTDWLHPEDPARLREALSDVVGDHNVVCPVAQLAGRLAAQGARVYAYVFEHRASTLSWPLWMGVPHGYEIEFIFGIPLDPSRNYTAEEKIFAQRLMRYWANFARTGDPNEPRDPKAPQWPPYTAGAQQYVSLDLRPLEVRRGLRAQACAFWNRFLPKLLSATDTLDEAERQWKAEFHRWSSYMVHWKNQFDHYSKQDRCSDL

Compound	inhibition [%]
CCN(C)C(=O)Oc1ccc2c(c1)N(Cc1ccccc1)/C(=C/C(C)=O)S2	< 10
CCCCCCNC(=O)Oc1ccc2c(c1)N(Cc1ccccc1)/C(=C/C(C)=O)S2	< 10
CCCCCCCNC(=O)Oc1ccc2c(c1)N(Cc1ccccc1)/C(=C/C(C)=O)S2	< 10
CCCCCCCNC(=O)Oc1ccc2c(c1)N(CCc1ccccc1)/C(=C/C(C)=O)S2	< 10
CCN(C)C(=O)Oc1ccc2c(c1)N(CCc1ccccc1)/C(=C/C(C)=O)S2	< 10

molecular target: T3, Dual specificity tyrosine-phosphorylation-regulated kinase 1A (Homo sapiens, UniProt Q13627); test: Inhibition of human DYRK1A using RRRFRPASPLRGPPK as substrate incubated for 40 mins in presence of Mg/[gamma-33P]-ATP by scintillation counting method; conditions: not given

Compound	IC50 [µM]
CC(=O)/C=C1\Sc2ccc(O)cc2N1Cc1cccc(C)c1	0.429
CC(=O)/C=C1\Sc2ccc(O)cc2N1Cc1ccccc1	0.529
COc1cccc(CN2/C(=C/C(C)=O)Sc3ccc(O)cc32)c1	0.883
CC(=O)/C=C1\Sc2ccc(O)cc2N1Cc1cccc(Cl)c1	0.885
CC(=O)/C=C1\Sc2ccc(O)cc2N1CCc1ccccc1	0.106

molecular target: Cholinesterase (Equus caballus) (UniProt P81908); test: Inhibition of equine serum BuChE at 10 uM using butyrylthiocholine iodide as substrate preincubated for 5 mins followed by substrate addition and measured every min for 10 mins by Ellman's method relative to control; format: cell-free; conditions: time 15.0 min
Sequence (P81908 whole entry): as the sequence (P81908 whole entry) above

Compound	inhibition [%]
CCCCNC(=O)Oc1ccc2c(c1)N(Cc1ccccc1)/C(=C/C(C)=O)S2	22
CCN1/C(=C/C(C)=O)Sc2ccc(OC(=O)N(C)C)cc21	25

tested on: not listed separately; test: Chromatographic hydrophobicity index, logD of the compound at pH 7.4 by reversed phase HPLC analysis; format: physicochemical; conditions: buffer

Compound	chromatographic logD
CCN(C)C(=O)Oc1ccc2c(c1)N(Cc1ccccc1)/C(=C/C(C)=O)S2	3
CCCCCCCNC(=O)Oc1ccc2c(c1)N(CCc1ccccc1)/C(=C/C(C)=O)S2	4.36

molecular target: T1, Dual specificity protein kinase CLK1; test: Inhibition of human CLK1 using ERMRPRKRQGSVRRRV as substrate incubated for 40 mins in presence of Mg/[gamma-33P]-ATP by scintillation counting method; conditions: not given
Target sequence in this assay (P49759 whole entry): as the sequence (P49759 whole entry, looked up) above

Compound	IC50 [µM]
CC(=O)/C=C1\Sc2ccc(O)cc2N1Cc1cccc(C)c1	0.039
CC(=O)/C=C1\Sc2ccc(O)cc2N1Cc1ccc(Cl)cc1	0.04
CC(=O)/C=C1\Sc2ccc(O)cc2N1Cc1ccccc1	0.054
COc1cccc(CN2/C(=C/C(C)=O)Sc3ccc(O)cc32)c1	0.076
CC(=O)/C=C1\Sc2ccc(O)cc2N1Cc1cccc(Cl)c1	0.033
CC(=O)/C=C1\Sc2ccc(O)cc2N1CCc1ccccc1	0.017

molecular target: T3, Dual specificity tyrosine-phosphorylation-regulated kinase 1A; test: Inhibition of human DYRK1A at 10 uM using RRRFRPASPLRGPPK as substrate incubated for 40 mins in presence of Mg/[gamma-33P]-ATP by scintillation counting method relative to control; conditions: not given

Compound	inhibition [%]
CC(=O)/C=C1\Sc2ccc(O)cc2N1Cc1ccc(Cl)cc1	75
CC(=O)/C=C1\Sc2ccc(O)cc2N1Cc1ccc2ccccc2c1	24

molecular target: T2, Acetylcholinesterase; test: Inhibition of human erythrocyte AChE using acetylthiocholine iodide as substrate preincubated for 5 mins followed by substrate addition and measured every min for 10 mins by Ellman's method; conditions: not given

Compound	IC50 [µM]
CCN1/C(=C/C(C)=O)Sc2ccc(OC(=O)NC3CCCCC3)cc21	11
CCCCCCNC(=O)Oc1ccc2c(c1)N(CC)/C(=C/C(C)=O)S2	14
CCN1/C(=C/C(C)=O)Sc2ccc(OC(=O)NCCc3ccccc3)cc21	20
CCN1/C(=C/C(C)=O)Sc2ccc(OC(=O)NCc3cccnc3)cc21	34
